Assay results published in PubChem BioAssay (NCI).
Values joined by “and” are separate entries in the source; they are usually repeats but may differ in a detail not shown here. Identical values can stand only once.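 96-well plates; 48 h exposure; 5 concentrations. Endpoints by linear interpolation between flanking doses. Not reached: highest tested concentration assigned. Here, GI50 denotes the concentration required for 50% inhibition of growth. TGI denotes the concentration required for complete inhibition of growth.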

Tests used:
Assay in all cases: inhibition of tumour cell growth, NCI panel, 48 h
BT-549 breast = test system: BT-549 breast
EKVX NSCLC = test system: EKVX NSCLC
LOX IMVI melanoma = test system: LOX IMVI melanoma
NCI-H460 lung = test system: NCI-H460 lung
SF-295 CNS = test system: SF-295 CNS
SK-MEL-28 melanoma = test system: SK-MEL-28 melanoma
TK-10 renal = test system: TK-10 renal
U251 CNS = test system: U251 CNS
UACC-62 melanoma = test system: UACC-62 melanoma
UO-31 renal = test system: UO-31 renal

SMILES | GI50 (BT-549 breast) | TGI (BT-549 breast) | GI50 (EKVX NSCLC) | TGI (EKVX NSCLC) | GI50 (LOX IMVI melanoma) | TGI (LOX IMVI melanoma) | GI50 (NCI-H460 lung) | TGI (NCI-H460 lung) | GI50 (SF-295 CNS) | TGI (SF-295 CNS) | GI50 (SK-MEL-28 melanoma) | TGI (SK-MEL-28 melanoma) | GI50 (TK-10 renal) | TGI (TK-10 renal) | GI50 (U251 CNS) | TGI (U251 CNS) [µM] | GI50 (UACC-62 melanoma) | TGI (UACC-62 melanoma) | GI50 (UO-31 renal) | TGI (UO-31 renal)
COc1cc(CCNc2nc3cc(N)cc(N)c3nc2-c2ccccc2)cc(OC)c1 | 2.48 µM | 5.47 µM | 1.8 µM | 3.4 µM | 1.65 µM | 3.17 µM | 3.25 µM | 10.9 µM | 1.77 µM | 3.47 µM | 1.63 µM | 3.31 µM | 3.49 µM | 12.1 µM | 1.67 µM | 3.11 | 1.81 µM | 3.36 µM | 1.94 µM | 3.78 µM
COc1ccc2cc(C(=O)/C=C/c3ccco3)ccc2c1 | 20.4 µM | 43.8 µM | 6.33 µM | 26.2 µM | 54 µM | > 100 µM | 22.7 µM | 52.6 µM | 38.8 µM | > 100 µM | > 100 µM | > 100 µM | 25.6 µM | 70 µM | 28.5 µM | 97.4 | 26.6 µM | > 100 µM | 37.5 µM | > 100 µM
NCC(=O)NC(CO)C(=O)O (centres undefined) | – | > 100 µM | – | > 100 µM | – | > 100 µM | – | > 100 µM | – | > 100 µM | – | > 100 µM | – | > 100 µM | – | > 100 | – | > 100 µM | – | > 100 µM
Cc1ccc(C(CC(=O)c2ccccc2)C(C(=O)c2ccccc2)C(c2ccc(C)cc2)C2C(=O)NC(=S)NC2=O)cc1 (centres undefined) | 31.7 µM | > 50 µM | 19.5 µM | > 50 µM | 17 µM | > 50 µM | 6.66 µM | > 50 µM | 12.2 µM | > 50 µM | > 50 µM | > 50 µM | 20.6 µM | > 50 µM | 16.3 µM | > 50 | 19.5 µM | > 50 µM | 6.93 µM | 29.3 µM
O=C1C(Cl)=C(Nc2cccc(O)c2)C(=O)N1c1ccc(Cl)cc1Cl | 13.9 µM | 54.6 µM | 57.3 µM | > 100 µM | 19.3 µM | 48.3 µM | 27.5 µM | > 100 µM | 27.2 µM | 86 µM | 60.9 µM | > 100 µM | > 100 µM | > 100 µM | 19 µM | 66.7 | 21.4 µM | 57.7 µM | 50.7 µM | > 100 µM
O=C(c1ccncc1)N1CCN(C2=NS(=O)(=O)c3ccccc3N2c2ccccc2)CC1 | 17.1 µM | 52.1 µM | 35 µM | > 100 µM | 11.5 µM | > 100 µM | 2.59 µM | > 100 µM | 9.87 µM | > 100 µM | 15.6 µM | 38.7 µM | 31.5 µM | 77.1 µM | 8.32 µM | > 100 | 7.99 µM | 21.6 µM | 36.4 µM | > 100 µM
COc1ccc(CCN2COc3ccc4ccc(=O)oc4c3C2)cc1OC | – | > 100 µM | – | > 100 µM | – | 49.4 µM | – | > 100 µM | – | > 100 µM | – | > 100 µM | – | > 100 µM | – | > 100 | – | > 100 µM | – | > 100 µM
Cc1cc(O)c(O)c(Oc2cc(C)cc(O)c2O)c1 | – | 78.9 µM | – | 36.8 µM | – | 24.6 µM | – | 26.6 µM | – | 55.7 µM | – | > 100 µM | – | 36.3 µM | – | > 100 | – | 56.8 µM | – | > 100 µM
CS(=O)(=O)N(CC(=O)O)Cc1ccccc1 | – | > 100 µM | – | > 100 µM | – | > 100 µM | – | > 100 µM | – | > 100 µM | – | > 100 µM | – | > 100 µM | – | > 100 | – | > 100 µM | – | –
CCCCC/C=C\C/C=C/CCCCCCCCNC(=O)Nc1ccc([N+](=O)[O-])cc1 | 28.2 µM | 65.3 µM | 23.8 µM | > 100 µM | 5.75 µM | > 100 µM | 21.9 µM | > 100 µM | 4.96 µM | > 100 µM | 32.7 µM | > 100 µM | > 100 µM | > 100 µM | 6.05 µM | > 100 | 2.9 µM | > 100 µM | 24.3 µM | > 100 µM
COc1cccc2cc(-c3nc(C4CCC(C(=O)O)CC4)n4ncnc(N)c34)[nH]c12 (centres undefined) | 0.0939 µM and 0.168 µM | 1.06 µM and 1.49 µM | 0.478 µM and 1.03 µM | 5.13 µM and > 10 µM | 0.368 µM and 0.825 µM | 4.85 µM and > 10 µM | 0.253 µM and 0.445 µM | 17.7 µM and > 10 µM | 0.233 µM and 0.647 µM | 2.1 µM and 4.36 µM | 0.175 µM and 0.169 µM | 1.81 µM and 1.4 µM | 0.15 µM and 0.411 µM | 1.63 µM and 6.11 µM | 0.666 µM and 1.26 µM | > 100 | 0.18 µM and 0.188 µM | 1.51 µM and 1.83 µM | 0.129 µM and 0.21 µM | 2.13 µM and 3.35 µM
O=C(NCc1cccs1)OC1CC2CCC1C2 (centres undefined) | – | > 100 µM | – | > 100 µM | – | > 100 µM | – | > 100 µM | – | > 100 µM | – | > 100 µM | – | > 100 µM | – | > 100 | – | > 100 µM | – | > 100 µM
Cc1ccc2nc(CC(=O)c3ccc4ccccc4c3)c(=O)[nH]c2c1 | – | > 100 µM | – | > 100 µM | – | > 100 µM | – | > 100 µM | – | > 100 µM | – | > 100 µM | – | > 100 µM | – | > 100 | – | > 100 µM | – | > 100 µM
Cc1[nH]c2ccccc2c1C1=CC(=O)C=CC1=O | 11.1 µM | 24.4 µM | 17.7 µM | 45 µM | 9.77 µM | 22.3 µM | 15.5 µM | 42.2 µM | 16.4 µM | 41 µM | 14.1 µM | 27.4 µM | 2.32 µM | 5.85 µM | 14.8 µM | 31.4 | 10.4 µM | 23.4 µM | 10.5 µM | 23.2 µM
CN1CCN(CCCOc2ccc3nc(Nc4ccc(C(F)(F)F)c(Cl)c4)ccc3c2)CC1 | 1.84 µM | 3.53 µM | 1.74 µM | 3.63 µM | 1.07 µM | 2.32 µM | 1.88 µM | 4.14 µM | 1.67 µM | 3.2 µM | 1.88 µM | 3.89 µM | 1.8 µM | 3.51 µM | 1.46 µM | 2.98 | 1.83 µM | 3.88 µM | 1.72 µM | 3.68 µM
